Source: patent US20120295907A1, “INSECTICIDAL COMPOUNDS” (SYNGENTA CROP PROTECTION, LLC, priority 2009, published 2012)

Tests used:
Type in all cases: in vivo
[1] = test system: Diabrotica balteata; experiment: Diabrotica balteata (Corn Root Worm) artificial diet MTP test; details: 120 h, 200 ppm (concentration in well 18 ppm), L2 larvae, 5 days, larval mortality, growth regulation
[2] = test system: Heliothis virescens; experiment: Heliothis virescens (Tobacco Budworm) egg test on artificial diet; details: 96 h, 200 ppm (concentration in well 18 ppm), eggs 0-24 h old on artificial diet, 4 days, egg mortality, larval mortality, growth regulation
[3] = test system: Plutella xylostella; experiment: Plutella xylostella (Diamond Back Moth) artificial diet MTP test; details: 144 h, 200 ppm (concentration in well 18 ppm), L2 larvae, 6 days, larval mortality, growth regulation
[4] = test system: Thrips tabaci; experiment: Thrips tabaci (Onion Thrips) sunflower leaf disc spray test; details: foliar, 168 h, 200 ppm spray on sunflower leaf discs, population of mixed ages, 7 days, mortality
[5] = test system: Spodoptera littoralis; experiment: Spodoptera littoralis (Egyptian Cotton Leafworm) cotton leaf disc spray test; details: foliar, 72 h, 200 ppm spray on cotton leaf discs, L1 larvae, mortality, feeding behavior, growth regulation 3 DAT

Measured: pest or weed control at 200 ppm

COc1c(NC(=O)c2ccc([N+](=O)[O-])c(C)c2Br)cccc1C(=O)Nc1c(Cl)cc(C(F)(C(F)(F)F)C(F)(F)C(F)(F)F)cc1Br (centres unmarked) [B162]
≥ 80%: [1] | [2] | [3] | [4]

COc1c(NC(=O)c2cc(C(C)(C)C)nn2C)cccc1C(=O)Nc1c(Cl)cc(C(F)(C(F)(F)F)C(F)(F)C(F)(F)F)cc1Br (centres unmarked) [B112]
≥ 80%: [5] | [1] | [2] | [3] | [4]

COc1c(NC(=O)c2ccccc2Cl)cccc1C(=O)Nc1c(C)cc(C(F)(C(F)(F)F)C(F)(F)C(F)(F)F)cc1C (centres unmarked) [F3]
≥ 80%: [5] | [1] | [2] | [3] | [4]

COc1c(NC(=O)c2ccc([N+](=O)[O-])c(C)c2I)cccc1C(=O)Nc1c(Cl)cc(C(F)(C(F)(F)F)C(F)(F)C(F)(F)F)cc1Br (centres unmarked) [B161]
≥ 80%: [1] | [2] | [3] | [4]

COc1c(NC(=O)c2c(-c3ccccc3)noc2C)cccc1C(=O)Nc1c(Cl)cc(C(F)(C(F)(F)F)C(F)(F)C(F)(F)F)cc1Br (centres unmarked) [B46]
≥ 80%: [4]

COc1c(NC(=O)c2ccccc2C(F)(F)F)cccc1C(=O)Nc1c(Cl)cc(C(F)(C(F)(F)F)C(F)(F)F)cc1Cl [E18]
≥ 80%: [5] | [1] | [2] | [3] | [4]

COc1c(NC(=O)c2ccccc2Cl)cccc1C(=O)Nc1c(Cl)cc(C(F)(C(F)(F)F)C(F)(F)F)cc1Cl [E3]
≥ 80%: [5] | [1] | [2] | [4]

CCc1cc(C(F)(C(F)(F)F)C(F)(F)C(F)(F)F)cc(C)c1NC(=O)c1cccc(NC(=O)c2cccc(Cl)c2)c1OC (centres unmarked) [A8]
≥ 80%: [5] | [1] | [2] | [3] | [4]

COc1c(NC(=O)c2cc(Cl)ccc2Cl)cccc1C(=O)Nc1c(Cl)cc(C(F)(C(F)(F)F)C(F)(F)C(F)(F)F)cc1Br (centres unmarked) [B27]
≥ 80%: [5] | [1] | [2] | [3] | [4]

COc1c(NC(=O)c2ccccc2F)cccc1C(=O)Nc1c(Cl)cc(C(F)(C(F)(F)F)C(F)(F)C(F)(F)F)cc1Cl (centres unmarked) [C3]
≥ 80%: [5] | [1] | [2] | [3] | [4]

CCc1cc(C(F)(C(F)(F)F)C(F)(F)C(F)(F)F)cc(C)c1NC(=O)c1cccc(NC(=O)c2cccc(F)c2F)c1OC (centres unmarked) [A20]
≥ 80%: [5] | [1] | [2] | [3] | [4]

COc1c(NC(=O)c2ccc(C(C)C)cc2)cccc1C(=O)Nc1c(Cl)cc(C(F)(C(F)(F)F)C(F)(F)C(F)(F)F)cc1Br (centres unmarked) [B25]
≥ 80%: [5] | [1] | [2] | [3] | [4]

CCc1cc(C(F)(C(F)(F)F)C(F)(F)C(F)(F)F)cc(C)c1NC(=O)c1cccc(NC(=O)c2ccccc2)c1OC (centres unmarked) [A19]
≥ 80%: [5] | [1] | [2] | [3] | [4]

COc1c(NC(=O)c2ccc(-c3ccccc3)o2)cccc1C(=O)Nc1c(Cl)cc(C(F)(C(F)(F)F)C(F)(F)C(F)(F)F)cc1Br (centres unmarked) [B49]
≥ 80%: [4]

COc1c(NC(=O)c2ccc(C(F)(F)F)cc2F)cccc1C(=O)Nc1c(Cl)cc(C(F)(C(F)(F)F)C(F)(F)C(F)(F)F)cc1Br (centres unmarked) [B167]
≥ 80%: [5] | [1] | [2] | [4]

COc1c(NC(=O)c2cc(C(F)(F)F)n(C)n2)cccc1C(=O)Nc1c(Cl)cc(C(F)(C(F)(F)F)C(F)(F)C(F)(F)F)cc1Br (centres unmarked) [B92]
≥ 80%: [5] | [1] | [4]

COc1cc(C(=O)Nc2cccc(C(=O)Nc3c(Cl)cc(C(F)(C(F)(F)F)C(F)(F)C(F)(F)F)cc3Br)c2OC)cc(Cl)n1 (centres unmarked) [B146]
≥ 80%: [5] | [1] | [2] | [3] | [4]

COc1c(NC(=O)c2ccc([N+](=O)[O-])c(C)c2Cl)cccc1C(=O)Nc1c(Cl)cc(C(F)(C(F)(F)F)C(F)(F)C(F)(F)F)cc1Br (centres unmarked) [B163]
≥ 80%: [1] | [2] | [3] | [4]

COc1c(NC(=O)c2cccc(F)c2)cccc1C(=O)Nc1c(C)cc(C(F)(C(F)(F)F)C(F)(F)C(F)(F)F)cc1C (centres unmarked) [F20]
≥ 80%: [5] | [1] | [2] | [3] | [4]

COc1c(NC(=O)c2cc(C)oc2C)cccc1C(=O)Nc1c(Cl)cc(C(F)(C(F)(F)F)C(F)(F)C(F)(F)F)cc1Br (centres unmarked) [B58]
≥ 80%: [5] | [1] | [2] | [3] | [4]

COc1c(NC(=O)c2ccc(F)cc2F)cccc1C(=O)Nc1c(Cl)cc(C(F)(C(F)(F)F)C(F)(F)F)cc1Cl [E22]
≥ 80%: [5] | [1] | [2] | [3] | [4]

COc1c(NC(=O)c2cc([N+](=O)[O-])ccc2Cl)cccc1C(=O)Nc1c(Cl)cc(C(F)(C(F)(F)F)C(F)(F)C(F)(F)F)cc1Br (centres unmarked) [B62]
≥ 80%: [5] | [1] | [2] | [3]

COc1c(NC(=O)c2ccnc(C(F)(F)F)c2Cl)cccc1C(=O)Nc1c(Cl)cc(C(F)(C(F)(F)F)C(F)(F)C(F)(F)F)cc1Br (centres unmarked) [B115]
≥ 80%: [5] | [1] | [2] | [3] | [4]

COc1c(NC(=O)c2cn(C)nc2C(F)F)cccc1C(=O)Nc1c(Cl)cc(C(F)(C(F)(F)F)C(F)(F)C(F)(F)F)cc1Br (centres unmarked) [B131]
≥ 80%: [5] | [1] | [2] | [3]

COc1c(NC(=O)c2cc([N+](=O)[O-])c(F)cc2Cl)cccc1C(=O)Nc1c(Cl)cc(C(F)(C(F)(F)F)C(F)(F)C(F)(F)F)cc1Br (centres unmarked) [B130]
≥ 80%: [5] | [1] | [2] | [3]

COc1c(NC(=O)c2ccc(C(F)(F)F)cc2)cccc1C(=O)Nc1c(C)cc(C(F)(C(F)(F)F)C(F)(F)C(F)(F)F)cc1C (centres unmarked) [F26]
≥ 80%: [5] | [1] | [2] | [3]

COc1c(NC(=O)c2ccc([N+](=O)[O-])c(N(C)C)c2)cccc1C(=O)Nc1c(Cl)cc(C(F)(C(F)(F)F)C(F)(F)C(F)(F)F)cc1Br (centres unmarked) [B175]
≥ 80%: [5] | [2] | [3] | [4]

COc1c(NC(=O)c2cc(Br)ccc2Cl)cccc1C(=O)Nc1c(Cl)cc(C(F)(C(F)(F)F)C(F)(F)C(F)(F)F)cc1Br (centres unmarked) [B83]
≥ 80%: [5] | [1] | [2] | [3]
